Experimental data: paper PMC4279406, “Simultaneous targeting of PI3Kδ and a PI3Kδ-dependent MEK1/2-Erk1/2 pathway for therapy in pediatric B-cell acute lymphoblastic leukemia” (Oncotarget, 2014)

Assays:
Raji cells = assay: BrdU incorporation assay; format: cell-based, human; settings: 1 μM, 24 h
Protocol: Simultaneous targeting of PI3Kδ and a PI3Kδ-dependent MEK1/2-Erk1/2 pathway for therapy in pediatric B-cell acute lymphoblastic […]
Cells were treated as indicated conditions and then subjected to lysate to perform standard Western blot as described previously1. Briefly, whole-cell lysates and SDS-loading buffer diluted cell fractions were analyzed on SDS-PAGE gels. Transfer to nitrocellulose membranes, nonfat milk blocking, probing with indicated primary antibodies and the corresponding HRP-conjugated second antibodies.
Chemiluminescence were performed and captured using ImageQuant LAS 4000 (GE healthcare Life Sciences, Piscataway, NJ, USA) and band intensity was measure both with ImageQuant™ TL (GE Healthcare Life Sciences) 2.
Caspase 3/7 activity assay
Raji cells were treated with or without X-370 at 1 μM, 5μM and 10 μM for 24, 48 and 72 hours, thenwere measured using the Caspase-Glo® 3/7 Assay (Promega, US) following the protocol and relative caspase-3/7 activity was normalized to cell number which DMSO control was the base line.
5-bromo-2'-deoxyuridine (BrdU) incorporation Assay
5-bromo-2'-deoxyuridine (BrdU) incorporation was performed using FITC BrdU Flow Kit (BD Pharmingen, San Diego, CA) according to the provided protocol.
Figure S1;. CAL-101 docked to the crystal structure of PI3Kδ. […]

[1] = tested on: PI3Kα (IGF-1-stimulated MEF cells); assay: IGF-1-induced Akt phosphorylation in MEF cells; format: cell-based, murine; settings: up to 0.5 μM; IGF-1 100 ng/ml; 1 h pre-incubation
Protocol: In fibroblasts, signals from the insulin-like growth factor 1 (IGF-1) receptor are mediated by PI3Kα, while lysophosphatidic acid (LPA) stimulates G-protein coupled receptor (GPCR) signals via PI3Kβ[26]. After being pre-incubated with X-370, murine embryonic fibroblasts cultured in serum-free medium were stimulated with IGF-1 or LPA. […] Either PI3Kδ or PI3Kγ can be activated in THP-1 monocytes dependent on the stimulating ligand, among which macrophage colony stimulating factor (M-CSF/CSF-1) activates RTK-coupled PI3Kδ, while monocyte chemoattractant protein-1 (MCP-1) activates PI3Kγ [24]. Accordingly, THP-1 cells cultured in serum-free medium were stimulated with MCP-1 or M-CSF in the presence of X-370 and phosphorylated Akt was measured.
Cell lysates were probed with indicated antibodies. The IC50 values were calculated based on relative band intensity measured with ImageQuant™ TL (GE Healthcare Life Sciences, Piscataway, NJ) (B). Data shown are mean values from three independent experiments. (C, D, E, F) X-370 blocked stimuli-triggered PI3Kδ activation. MEF cells and THP-1 were starved in serum-free medium for 12 h or 4 h respectively and X-370 were added for an additional 1 h treatment following stimulation of IGF-1 at 100 ng/ml for MEF cells (C), LPA at 10 μM for MEF cells (D), MCP-1 at 100ng/ml for THP-1 (E) and M-CSF at 50 ng/ml for THP-1 (F). […]

SMILES: O=C(N1CCCC1)N1CCC(n2cnc3c(-n4c(C(F)F)nc5ccccc54)nc(N4CCOCC4)nc32)CC1 [X-370]
- DNA synthesis (BrdU incorporation) (Raji cells): readily inhibited
- IGF-1-induced Akt phosphorylation [1]: partially inhibited
